# Measured values from patent US20250064983A1, “COMPOSITIONS AND METHODS FOR TREATING A CARDIAC DISEASE” (The Children's Medical Center Corporation, priority 2022, published 2025).
# “Also recorded” adds a separate entry of the source.
# Legend:
# Format in all cases: in vivo, mouse
# LKB Flox/Flox mice = experiment: Example 4: beat to beat variation in LKB Flox/Flox mice with NPPA-Cre (atrial fibrillation model); details: co-injection of NPPA-Cre and AIP×5-mcherry AAV; 2, 4 and 6 weeks
# Description: FIGS. 7A and 7B provide plots showing the impact of AIP×5 administration on atrial fibrillation in a mouse model. LKB Flox/Flox mice were double injected with AAV-NPPA-Cre and AAV-AIP×5-mcherry (see FIG. 6). FIG. 7A provides plots showing results from an experiment where mice positive for the LKB1 flanked by LoxP sites (LKB1flox/flox) were injected with either AAV9-NPPA-RFP, AAV9-NPPA-Cre or double injections of AAV9-NPPA-Cre+AAV9-cTnT-AIP×5 at post-natal day 3 (P3). At two week intervals, ECG recordings for 3 minutes were performed under anesthesia. The time difference between two QRS complexes (RR interval) was plotted as a function of the following interval (RR+1). FIG. 7B provides a plot where the standard deviation of the RR intervals for a 1 minute recording was calculated for each animal at the time points shown.
# Experiments were undertaken to evaluate the efficacy of AIP×5 administration in treatment of atrial fibrillation. LKB Flox/Flox mice were double injected with NPPA-Cre and AIP×5-mcherry using an AAV vector. The mice were a model for atrial fibrillation. […] It was evaluated whether co-injection with AAV-AIP×5 would reduce AF. Beat to beat variation in HR, an index of AF frequency, was analyzed by plotting each RR interval (R) versus the RR interval of the subsequent beat (RI) (n=˜500 beats) (FIG. 7A). […] HR beat to beat variation was analyzed at 2 weeks, 4 weeks, and 6 weeks.
# LKB1 knockout mice = experiment: Example 5: beat-to-beat variability (EKG) in LKB1 knockout mice (AF model)
# Text: Two different atrial fibrillation (AF) mouse models were used to test the efficacy of AIP×5 at treating AF of different origins. The two different AF mouse models were liver kinase B1 (LKB1) knock out mice and T-box transcription factor 5 (Tbx5) knock out mice.
# LKB1-floxed or Tbx5-floxed mice were used to test the efficacy of AIP×5. AAV-NPPA-Cre was then used to conditionally knock out LKB1 or Tbx5 from the atria of the mice. NPPA is an atria specific promoter, ensuring that Cre recombinase directed knockout of LKB1 or Tbx5 was restricted to the atria. AAV-NPPA-FP (fluorescent protein) was used as a control virus. AAV-NPPA-FP has no Cre, and therefore the gene of interest is not knocked out. Uninjected mice were also included as a control to account for any effects caused by AAV injections. AAV-cTnT-AIP×5 or AAV-cTnT-CN19o were both tested as potential therapies to AF.
# In short, P3 LKB1-floxed or Tbx5-floxed mice were injected (or not injected in the uninjected controls), and then EKG measurements of the mice were taken every two weeks starting at P14. At 12 weeks, the mice were sacrificed, and the sacrificed mice were tested for protein expression.
# AF was calculated using the standard deviation of the beat-to-beat timing differences. A high beat-to-beat variability when sedated was indicative of atrial misfiring.
# Statistical significance in the tests illustrated in FIGS. 10 and 11 was conducted using a 2-way Anova with post-hoc Dunnett's multiple comparisons to control (FP) group.
# CaMKII = experiment: phosphorylation of phospholamban (PLB) at threonine-17 in whole heart lysates exposed to isoproterenol; details: exposed to isoproterenol (ISO), FIG. 3
# Description: FIG. 3 provides a chart, a capillary Western image, and a plot showing the effects of the indicated constructs, which are described in FIG. 2D, on CaMKII activity in vivo. To confirm suppression of CaMKII activation in vivo, phosphorylation of phospholamban (PLB) at threonine-17, a known target of CaMKII, was analyzed from whole heart lysates. The middle panel of FIG. 3 provides a capillary Western image showing glyceraldehyde-3-phosphate dehydrogenase polypeptide (GAPDH) expression in cells contacted (+) or not contacted (−) with isoproterenol (ISO), as well as the levels of phosphorylated PLB (pPLB) and non-phosphorylated PLB (PLB). The right panel of FIG. 3 provides a plot showing the ratio of pPLB to PLB in hearts treated with no ISO or with ISO and mCherry (the “ISO” sample), AIP, AIP×5, AIP-FKBP12.6, CN19o, CN19oX3, or CN19o-FKBP12.6, which are described in FIG. 2D.
# To confirm suppression of CaMKII activation in vivo, phosphorylation of phospholamban (PLB) at threonine-17, a known target of CaMKII, was evaluated in heart tissue from mice and whole heart lysates exposed to isoproterenol (ISO) (FIG. 3). Exposure of cardiac cells to ISO induced phosphorylation of PLB by CaMKII (FIG. 3).
# [1] = test system: RYR2^R176Q/QT and RYR2^R4560I/WT mice; experiment: Example 3: AAV vectors expressing AIP×5 in CPVT animal models; details: example written in present tense
# Text: FIG. 6 provides a schematic showing administration of AAV vectors to RYR2^R176Q/WT and RYR2^R4560I/WT mice. […]. The top portion of FIG. 6 provides a schematic showing the components of polynucleotides of the AAV vectors. In FIG. 6, ITR represents “inverted terminal repeat,” CASQ2 represents a calsequestrin 2 enhancer, cTnT represents a “cardiac troponin” promoter, an INT represents a hemoglobin enhancer, AIP×5 represents a multimer containing five autocamtide-2-related inhibitory peptide (AIP) units, mScarlet represents the fluorescent polypeptide mScarlet, nls represents a nuclear localization signal, “stop” represents a stop codon, and WPRE represents a Woodchuck Hepatitis Virus (WHV) Posttranscriptional Regulatory Element.
# AAV vectors expressing AIP×5 or a negative control AIV vector expressing only mScarlet (see FIG. 6) are prepared and administered to RYR2^R176Q/QT and RYR2^R4560I/WT mice, which are animal models of catecholaminergic polymorphic ventricular tachycardia (CPVT). The efficacy of the vectors in reducing symptoms of CPVT is evaluated in the animal models.
sequence,measurement,setting,value
YKKALHRQEAVDALYKKALHRQEAVDALYKKALHRQEAVDALYKKALHRQEAVDALYKKALHRQEAVDAL [AIP×5],symptoms of AF (beat to beat variation of RR interval),LKB Flox/Flox mice,effective in reducing symptoms of AF
same,beat-to-beat variability compared to control (non-LKB1 knockout) mice,LKB1 knockout mice; 2-way Anova with Dunnett's,no statistically significant difference in beat-to-beat variability
same,suppression of beat-to-beat variability,"LKB1 knockout mice; AAV-cTnT vector, FIG. 10",reduction in beat-to-beat variability; also recorded: effective in suppressing beat-to-beat variability
same,PLB phosphorylation (pPLB to PLB),CaMKII,statistically significant decrease in PLB phosphorylation
same,symptoms of CPVT (ectopy and/or ventricular tachycardia),[1],reduction in symptoms of CPVT
